From publication PMC12363342, “Investigating the N-terminal linker histone H1 subtypes as substrates for JmjC lysine demethylases” (RSC Chemical Biology, 2025)
Square brackets hold non-standard residues; d marks the D form. Ends that are not written are not given here. Lys(Me3) = C[N+](C)(C)CCCC[C@H](N)C(=O)O; Lys(Me2) = CN(C)CCCC[C@H](N)C(=O)O

Assays:
[1] = target: T1, KDM4E (Homo sapiens, UniProt B2RXH2); assay: LC-MS demethylation activity assay, KDM4E; format: biochemical; conditions: room temperature; for substrate conversion (demethylation) by KDM4E: HEPES pH 7.5, 2 h; for KDM4E demethylation activity, D: D (di-) initial methylation state
T1 construct: KDM4DM1-L359,[39]; KDM4EM1-R336,[30]; His6 (N); made in house; host or cells: Escherichia coli
T1 sequence (B2RXH2 1-336): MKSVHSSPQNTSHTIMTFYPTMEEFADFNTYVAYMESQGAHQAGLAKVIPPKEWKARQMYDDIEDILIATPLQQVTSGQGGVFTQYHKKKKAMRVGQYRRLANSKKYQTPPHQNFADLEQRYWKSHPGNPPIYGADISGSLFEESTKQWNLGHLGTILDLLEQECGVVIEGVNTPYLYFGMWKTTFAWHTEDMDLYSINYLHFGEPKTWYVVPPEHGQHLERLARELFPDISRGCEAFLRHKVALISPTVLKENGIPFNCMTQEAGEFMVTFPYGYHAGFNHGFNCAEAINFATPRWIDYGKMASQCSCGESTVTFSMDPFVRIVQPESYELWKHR
Protocol: (§1) The substrate specificity of JmjC KDMs for H1 was examined using liquid chromatography coupled to mass spectrometry (LC-MS) assays. The H1 peptides (10 μM) were incubated with the recombinant KDM (2 μM) in HEPES buffer at pH 7.5 at room temperature for 2 h, in the presence of ferrous(II) ammonium sulfate (FAS, 10 μM), sodium ascorbate (LAA, 100 μM) and 2OG (20 μM), and then quenched with formic acid. N^ε-Methylated H3K9 and H3K36 peptides were used as positive controls (Fig. 3–5 and Fig. S2–S6).[26]
(§2) The catalytic domains of the JmjC KDMs used were recombinantly produced as reported in either Escherichia coli (KDM4AM1-L359,[38] KDM4DM1-L359,[39] KDM4EM1-R336,[30] KDM6BD1141–E1590[40] and KDM3CL2157-L2500) or Sf9 cells (KDM3AT515–S1317, KDM3B882–1761, and KDM5DM1-D775) as N-terminally His6-tagged proteins. […] To produce proteins, DNA sequences encoding for KDM3A, KDM3B and KDM5D were inserted into the pFB-LIC vector, containing a TEV-protease cleavable N-terminal 6x-histidine tag via ligation independent cloning (LIC). The resultant plasmids were transformed into baculovirus and Sf9 cells ([…]) which were infected with the virus stock. The cells were grown at 27 °C and 90 rpm for 70 h. Cells were then harvested and suspended in 100 mL of lysis buffer (50 mM HEPES-NaOH, pH 7.4, 500 mM NaCl, 20 mM imidazole, 0.5 mM Tris (2-carboxyethyl)phosphine (TCEP), 5% (v/v) glycerol). […] The supernatant was loaded onto a Ni-NTA gravity column, washed with 10 column volume of lysis buffer and eluted using the elution buffer (50 mM HEPES-NaOH, pH 7.4, 500 mM NaCl, 300 mM imidazole, 0.5 mM TCEP, 5% (v/v) glycerol). The eluted protein was further purified using S200 gel filtration column chromatography (50 mM HEPES-NaOH, pH 7.4, 150 mM NaCl, 0.5 mM TCEP and 5% glycerol). Protein purity was analysed by SDS-PAGE and further confirmed by mass spectrometry. Selected fractions were pooled, concentrated and stored at −80 °C.
(§3) All reagents were purchased from Sigma Aldrich and were of the highest grade available. Ferrous(II) ammonium sulfate (FAS) solutions were prepared freshly by dissolving FAS to 400 mM in 20 mM HCl with subsequent dilution to 1 mM using deionized water. Fresh 2OG (10 mM) and LAA (50 mM) solutions were prepared by dissolving the solids in deionised water. All enzyme reactions were performed in 384-well plates (Greiner Bio-One) with a final reaction volume of 50 μL. Substrate mixtures contained 50 mM HEPES pH 7.5, LAA (100 μM), FAS (10 μM), 2OG (20 μM) and an H1 isoform peptide (10 μM). Reactions were initiated by the addition of enzyme to a final concentration of 2.0 μM. After 2 h, the reactions were stopped by the addition of 5 μL of 10% (v/v) LC-MS grade formic acid (Fisher Scientific) to a final concentration of 1% (v/v). Product analyses were performed by liquid chromatography-mass spectrometry (LC-MS) using an Agilent 1290 infinity II LC system equipped with an Agilent 1290 multisampler and an Agilent 1290 high speed pump and connected to an Agilent 6550 accurate mass iFunnel quadrupole time of flight (Q-TOF) mass spectrometer. 1 μL of the reaction mixture was injected onto a 1.8 μm × 2.1 × 50 mm ZORBAX RRHD Eclipse Plus C18 column (Agilent). Solvent A consisted of HPLC grade water containing 0.1% (v/v) formic acid and solvent B consisted of MeCN containing 0.1% (v/v) formic acid. Peptides were separated using a stepwise gradient (0 min – 95% solvent A, 1.0 min – 80% solvent A, 3.0 min – 45% solvent A, 4.0 min – 45% solvent A, 5.0 min – 0% solvent A, 6.0 min – 0% solvent A, 7.0 min – 95% solvent A). This was followed by a 3 min post-run with 95% solvent A to re-equilibrate the column. All flow rates were 0.2 mL min^−1. A blank injection of HPLC grade water was carried out between each sample injection.

[2] = system: KDM3A; assay: LC-MS demethylation activity assay, KDM3A; format: biochemical, human; conditions: 2 μM KDM, 10 μM H1/H3 peptide, 10 μM FAS, 100 μM LAA, 20 μM 2OG, 50 mM HEPES pH 7.5, 2 h, room temperature; for KDM3A demethylation activity, D: D (di-) initial methylation state
Protocol: as §1, §2, §3

[3] = system: KDM4A; assay: LC-MS demethylation activity assay, KDM4A; format: biochemical, human; conditions: 10 μM FAS, 100 μM LAA, 20 μM 2OG, room temperature; for KDM4A demethylation activity, D: D (di-) initial methylation state; for substrate conversion (demethylation) by KDM4A: 2 μM KDM4A, 10 μM peptide, HEPES pH 7.5, 2 h
Protocol: as §1, §2, §3

[4] = system: KDM5D; assay: LC-MS demethylation activity assay, KDM5D; format: biochemical, human; conditions: 2 μM KDM, 10 μM H1/H3 peptide, 10 μM FAS, 100 μM LAA, 20 μM 2OG, 50 mM HEPES pH 7.5, 2 h, room temperature; for KDM5D demethylation activity, D: D (di-) initial methylation state
Protocol: as §1, §2, §3

[5] = system: KDM3C; assay: LC-MS demethylation activity assay, KDM3C; format: biochemical, human; conditions: 2 μM KDM, 10 μM H1/H3 peptide, 10 μM FAS, 100 μM LAA, 20 μM 2OG, 50 mM HEPES pH 7.5, 2 h, room temperature; for KDM3C demethylation activity, D: D (di-) initial methylation state
Protocol: as §1, §2, §3

[6] = target: T2, KDM4D (Homo sapiens, UniProt Q6B0I6); assay: LC-MS demethylation activity assay, KDM4D; format: biochemical; conditions: room temperature; for KDM4D demethylation activity, D: D (di-) initial methylation state; for substrate conversion (demethylation) by KDM4D: HEPES pH 7.5, 2 h
T2 construct: KDM4AM1-L359,[38]; KDM4DM1-L359,[39]; KDM4EM1-R336,[30]; His6 (N); made in house; host or cells: Escherichia coli
T2 sequence (Q6B0I6 1-359): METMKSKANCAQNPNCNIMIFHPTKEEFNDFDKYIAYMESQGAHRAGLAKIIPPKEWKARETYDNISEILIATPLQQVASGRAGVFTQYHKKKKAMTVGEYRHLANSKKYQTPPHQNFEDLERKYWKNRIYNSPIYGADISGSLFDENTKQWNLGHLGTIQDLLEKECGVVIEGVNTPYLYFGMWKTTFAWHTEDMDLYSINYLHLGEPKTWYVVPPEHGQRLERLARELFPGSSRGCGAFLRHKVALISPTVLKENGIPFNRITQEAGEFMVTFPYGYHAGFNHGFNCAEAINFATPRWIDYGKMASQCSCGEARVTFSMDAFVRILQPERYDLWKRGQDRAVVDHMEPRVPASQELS
Protocol: as §1, §2, §3

[7] = system: KDM3B; assay: LC-MS demethylation activity assay, KDM3B; format: biochemical, human; conditions: 2 μM KDM, 10 μM H1/H3 peptide, 10 μM FAS, 100 μM LAA, 20 μM 2OG, 50 mM HEPES pH 7.5, 2 h, room temperature; for KDM3B demethylation activity, D: D (di-) initial methylation state
Protocol: as §1, §2, §3

[8] = system: KDM6B; assay: LC-MS demethylation activity assay, KDM6B; format: biochemical, human; conditions: 2 μM KDM, 10 μM H1/H3 peptide, 10 μM FAS, 100 μM LAA, 20 μM 2OG, 50 mM HEPES pH 7.5, 2 h, room temperature; for KDM6B demethylation activity, D: D (di-) initial methylation state
Protocol: as §1, §2, §3

[9] = 2 μM KDM4E, 10 μM peptide, 10 μM FAS, 100 μM LAA, 20 μM 2OG
[10] = 2 μM KDM, 10 μM H1/H3 peptide, 10 μM FAS, 100 μM LAA, 20 μM 2OG, 50 mM HEPES pH 7.5, 2 h
[11] = 2 μM KDM, 10 μM H1/H3 peptide, 50 mM HEPES pH 7.5, 2 h
[12] = 2 μM KDM4D, 10 μM peptide, 10 μM FAS, 100 μM LAA, 20 μM 2OG
[13] = 2 μM KDM, 10 μM H1/H3 peptide, 10 μM FAS, 100 μM LAA, 20 μM 2OG, 50 mM HEPES pH 7.5, 2 h, M (mono-) initial methylation state
[14] = M (mono-) initial methylation state
[15] = 2 μM KDM, 10 μM H1/H3 peptide, 10 μM FAS, 100 μM LAA, 20 μM 2OG, 50 mM HEPES pH 7.5, 2 h, T (tri-) initial methylation state
[16] = T (tri-) initial methylation state
[17] = 2 μM KDM4D, 10 μM peptide, standard conditions, 2 h

Row | substrate conversion (demethylation) by KDM4E [1, 9] [%] | substrate conversion (demethylation) by KDM4D [6, 12] | Substance | KDM4E demethylation activity, D [1, 10] | KDM3A demethylation activity, D [2] | KDM4A demethylation activity, D [3, 11] | KDM5D demethylation activity, D [4] | KDM3C demethylation activity, D [5] | KDM4D demethylation activity, D [6, 10] | KDM3B demethylation activity, D [7] | KDM6B demethylation activity, D [8] | substrate conversion (demethylation) by KDM4A [3] [%] | other results
1 | > 40 | – | KKKATK[Lys(Me2)]AAGAGAAK [Peptide H1.5K26me2, 15-mer linker histone H1.5 residues 20-34 peptide, di-methylated K26] | ● [green] (green dots indicate good demethylation (>50% conversion)) | ● [red] | ● [red] | ● [red] | ● [red] | ● [black] (black dots indicate low-level demethylation (<10% conversion)) | ● [red] | ● [red] | – | –
2 | ~50 | > 40% | KKKAR[Lys(Me2)]SAGAAKRKA [Peptide H1.4K25me2, 15-mer linker histone H1.4 residues 20-34 peptide, di-methylated K25] | ● [red] | ● [red] | ● [black] (black dots indicate low-level demethylation (<10% conversion)) | ● [red] | ● [red] | ● [yellow] (yellow dots indicate moderate demethylation (<50% conversion)) | ● [red] | ● [red] | ~20 | –
3 | – | – | KKKATKmeKAAGAGAAK [Peptide H1.5K25me, 15-mer linker histone H1.5 residues 20-34 peptide, mono-methylated K25] | – | – | – | – | – | – | – | – | – | KDM4E demethylation activity, M [1, 13]: ● [red]; KDM3A demethylation activity, M [2, 14]: ● [red]; KDM4A demethylation activity, M ([3]; 2 μM KDM, 10 μM H1/H3 peptide, 50 mM HEPES pH 7.5, 2 h, M (mono-) initial methylation state): ● [red]; KDM5D demethylation activity, M [4, 14]: ● [red]; KDM3C demethylation activity, M [5, 14]: ● [red]; KDM4D demethylation activity, M [6, 13]: ● [red]; KDM3B demethylation activity, M [7, 14]: ● [red]; KDM6B demethylation activity, M [8, 14]: ● [red]
4 | < 10 | – | KKKAK[Lys(Me3)]AGATAGKRK [Peptide H1.3K25me3, 15-mer linker histone H1.3 residues 20-34 peptide, tri-methylated K25] | – | – | – | – | – | – | – | – | < 10 | KDM4E demethylation activity, T [1, 15]: ● [black] (black dots indicate low-level demethylation (<10% conversion)); KDM3A demethylation activity, T [2, 16]: ● [red]; KDM4A demethylation activity, T ([3]; 2 μM KDM, 10 μM H1/H3 peptide, 50 mM HEPES pH 7.5, 2 h, T (tri-) initial methylation state): ● [black] (black dots indicate low-level demethylation (<10% conversion)); KDM5D demethylation activity, T [4, 16]: ● [red]; KDM3C demethylation activity, T [5, 16]: ● [red]; KDM4D demethylation activity, in words [6, 17]: No activity was observed; di-methylated product formed by KDM4D [6, 17]: < 5%; KDM4D demethylation activity, T [6, 15]: ● [red]; KDM3B demethylation activity, T [7, 16]: ● [red]; KDM6B demethylation activity, T [8, 16]: ● [red]
5 | – | 20–35% | KKKAAK[Lys(Me2)]AGGTPRKA [Peptide H1.2K26me2, 15-mer linker histone H1.2 residues 20-34 peptide, di-methylated K26] | ● [green] (green dots indicate good demethylation (>50% conversion)) | ● [red] | ● [red] | ● [red] | ● [red] | ● [yellow] (yellow dots indicate moderate demethylation (<50% conversion)) | ● [red] | ● [red] | – | mono-methylated product formed by KDM4E ([1]; 2 μM KDM4E, 10 μM peptide, standard conditions, 2 h): ~64%
6 | – | – | KKKAK[Lys(Me2)]AGATAGKRK [Peptide H1.3K25me2, 15-mer linker histone H1.3 residues 20-34 peptide, di-methylated K25] | ● [red] | ● [red] | ● [red] | ● [red] | ● [red] | ● [red] | ● [red] | ● [red] | – | –
